Test results reported in paper PMC2033546, “Effects of somatostatin analogue RC-160 and bombesin/gastrin-releasing peptide antagonists on the growth of human small-cell and non-small-cell lung carcinomas in nude mice” (British Journal of Cancer, 1994).

How the values were obtained:
[1] = test system: human SCLC cell line NCI-H69; assay: Growth of H69 SCLC xenografts in nude mice; format: in vivo, human (xenograft in male athymic nude mice); details: for Tumour weight: antagonists 20 µg/day per animal, control 0.27 ? 0.19; for Tumour doubling time: antagonists 20 µg/day per animal s.c., control 7.5; for Growth of H69 SCLC tumours (in words): s.c. peritumorally, bombesin/GRP antagonists 20 µg per animal per day
Source text: (§1) Br. J. Cancer (1994). 70, 886 892 ? Macmillan Press Ltd.. […] Bombesin GRP antagonists. […] Lung carcinoma is the leading cause of cancer-related deaths in the western world. It is estimated that in 1992 there were approximately 168,000 new cases of lung cancer in the US and that about 146,000 deaths occurred from this disease (Boring et al., 1992). […] The growth factors such as bombesin/gastrin-releasing pep- tide (GRP), epidermal growth factor, (EGF), transforming growth factor a (TGF-x) and insulin-like growth factor I(IGF-I) appear to play a role in the proliferation and pro- gression of lung cancer (Cuttitta et al., 1985; Veale et al., 1987; Minuto et al., 1988; Siegfried & Owens, 1988; Macaulay et al., 1990; Tateishi et al., 1991; Damstrup et al., 1992; Sethi & Rozengurt, 1992; Rabiasz et al., 1992; Moody & Cuttitta, 1993). […] Tpi is 2,3,4,9-tetrahydro- Correspondence: A.V. Schally (151). VA Medical Center, 1601 Per- dido Street. New Orleans, LA 70146. USA. Received 1 March 1994; and in revised form 5 July 1994. Br. J. Cancer (1994), 70, 886-892 C Macmillan Press Ltd., 1994 PEPTIDE ANALOGUES IN LUNG CANCER 8U7 lH-pyrido [3,4bjindol-3-carboxylic acid, a conformationally constrained secondary amine derivate of tryptophan and Tac is thiazolidine-4-carboxylic acid. […] Animals Male athymic NCr nulmu nude mice, approximately 6 weeks old on arrival, were obtained from the NCI (Bethesda, MD, USA) and maintained under pathogen-limited conditions. Cell lines The human SCLC cell line NCI-H69, was obtained from the American Type Cell Culture (ATCC), Rockville, MD, USA and the non-SCLC cell line NCI-H157, from Dr H. Oie, NCI-Navy Medical Oncology Branch, Bethesda, MD, USA. These cell lines were cultured in RPMI-1640 medium supple- mented with 4 mM L-glutamine, 50 units ml-I penicilln G sodium, SOigml-' streptomycin sulphate, 0.125pgml-' amphotericin B and 10% fetal bovine serum at 3TC in a humidified 95% air/5% carbon dioxide atmosphere. CeLs were passaged weekly and routinely monitored for myco- plasma contamination using a detection kit (Boehringer- Mannheim, Mannheim, Germany). All culture media com- ponents were purchased from Gibco (Grand Island, NY, USA). Receptor assays Preparation of membranes for receptor studies was described previously (Halmos et al., 1993). Iodinated EGF and IGF-I were purchased from Amersham (Arlington Heights, IL, USA). Radioiodination of other peptides and receptor bind- ing of EGF, IGF-I, somatostatin and bombesin/GRP were performed as previously described (Srkalovic et al., 1989; Szepeshazi et al., 1992). Complete displacement assays on tumour membranes were done only once because of the shortage of tumour material. The LIGAND PC computerised curve-fitting programme of Munson and Rodbard (1980) was used to determine the types of receptor binding, dissociation constant (Kd) values, and the maximal binding capacity (BDj) of receptors. In order to determine the specificity of the binding sites for radiolabelled EGF, IGF-I, somatostatin and bombesin to lung cancer membranes, various structuraly related and unrelated peptides were tested for their ability to inhibit the binding of the tracers. Histological procedure The histological procedures were the same as described previously (Szepeshazi et al., 1991, 1992). The number of mitotic and apoptotic cells per 1,000 cells was determined, and the percentage area of necrosis in tumour sections was examined using the point-counting method (Szepeshazi et al., 1991, 1992), in which the crossing points of an ocular net that coincide with necrosis in various sections are counted. Radiommunoassays Serum levels of growth hormone were determined by double- antibody radioimmunoassay (RIA) using materials supplied by the National Hormone and Pituitary Program of the National Institute of Diabetes and Digestive and Kidney Diseases (NIDDK).

[2] = test system: non-SCLC cell line NCI-H157; assay: Growth of H157 non-SCLC xenografts in nude mice; format: in vivo, human (xenograft in male athymic nude mice); details: RC-160 100 µg/day, RC-3095 20 µg/day
Source text: as §1

SCLC H69 tumours = assay: Histology (mitosis, apoptosis, necrosis) of SCLC H69 tumours; format: in vivo, human (xenograft in nude mice); details: for Extent of necrosis (in words): SCLC H69 tumours, point-counting method, differences from control not significant statistically; for Apoptotic index / Mitotic index: Table II, Experiment I (SCLC H69), means ? s.e.; for Apoptotic index: apoptotic cells per 1,000 cells, control 35.4 ? 2.6; for Mitotic index: mitotic cells per 1,000 cells, control 37.9 ? 2.9, *P < 0.05 vs control
Source text: as §1

[3] = test system: EGF receptors in membranes of SCLC H69 tumours; assay: EGF receptor binding on H69 tumour membranes after in vivo treatment; parameters: species or system human; details: Table IV, Experiment I (SCLC-H69); tumour membranes after in vivo treatment; control 278; ten-point displacement in triplicate tubes, done once
Source text: as §1, with “In order to determine the specificity of the binding sites for radiolabelled EGF, IGF-I, somatostatin and bombesin to lung cancer membranes, various structuraly related and unrelated peptides were tested for their ability to inhibit the binding of the tracers. Histological procedure The histological procedures were the same as described previously (Szepeshazi et al., 1991, 1992).” left out

[4] = test system: EGF receptors in membranes of non-SCLC H157 tumours; assay: EGF receptor binding on H157 tumour membranes after in vivo treatment; parameters: species or system human
Source text: as §1, with “Receptor assays Preparation of membranes for receptor studies was described previously (Halmos et al., 1993). Iodinated EGF and IGF-I were purchased from Amersham (Arlington Heights, IL, USA). Radioiodination of other peptides and receptor bind- ing of EGF, IGF-I, somatostatin and bombesin/GRP were performed as previously described (Srkalovic et al., 1989; Szepeshazi et al., 1992). Complete displacement assays on tumour membranes were done only once because of the shortage of tumour material. The LIGAND PC computerised curve-fitting programme of Munson and Rodbard (1980) was used to determine the types of receptor binding, dissociation constant (Kd) values, and the maximal binding capacity (BDj) of receptors. In order to determine the specificity of the binding sites for radiolabelled EGF, IGF-I, somatostatin and bombesin to lung cancer membranes, various structuraly related and unrelated peptides were tested for their ability to inhibit the binding of the tracers. Histological procedure The histological procedures were the same as described previously (Szepeshazi et al., 1991, 1992).” left out

[5] = test system: IGF-I receptors in membranes of SCLC H69 tumours; assay: IGF-I receptor binding on H69 tumour membranes after in vivo treatment; parameters: species or system human; details: Table IV, Experiment I (SCLC-H69), control 294, done once
Source text: as §1, with “Receptor assays Preparation of membranes for receptor studies was described previously (Halmos et al., 1993). Iodinated EGF and IGF-I were purchased from Amersham (Arlington Heights, IL, USA). Radioiodination of other peptides and receptor bind- ing of EGF, IGF-I, somatostatin and bombesin/GRP were performed as previously described (Srkalovic et al., 1989; Szepeshazi et al., 1992). Complete displacement assays on tumour membranes were done only once because of the shortage of tumour material. The LIGAND PC computerised curve-fitting programme of Munson and Rodbard (1980) was used to determine the types of receptor binding, dissociation constant (Kd) values, and the maximal binding capacity (BDj) of receptors. In order to determine the specificity of the binding sites for radiolabelled EGF, IGF-I, somatostatin and bombesin to lung cancer membranes, various structuraly related and unrelated peptides were tested for their ability to inhibit the binding of the tracers. Histological procedure The histological procedures were the same as described previously (Szepeshazi et al., 1991, 1992).” left out

[6] = test system: IGF-I receptors in membranes of non-SCLC H157 tumours; assay: IGF-I receptor binding on H157 tumour membranes after in vivo treatment; parameters: species or system human
Source text: as §1, with “Receptor assays Preparation of membranes for receptor studies was described previously (Halmos et al., 1993). Iodinated EGF and IGF-I were purchased from Amersham (Arlington Heights, IL, USA). Radioiodination of other peptides and receptor bind- ing of EGF, IGF-I, somatostatin and bombesin/GRP were performed as previously described (Srkalovic et al., 1989; Szepeshazi et al., 1992). Complete displacement assays on tumour membranes were done only once because of the shortage of tumour material. The LIGAND PC computerised curve-fitting programme of Munson and Rodbard (1980) was used to determine the types of receptor binding, dissociation constant (Kd) values, and the maximal binding capacity (BDj) of receptors. In order to determine the specificity of the binding sites for radiolabelled EGF, IGF-I, somatostatin and bombesin to lung cancer membranes, various structuraly related and unrelated peptides were tested for their ability to inhibit the binding of the tracers. Histological procedure The histological procedures were the same as described previously (Szepeshazi et al., 1991, 1992).” left out

[7] = test system: Bombesin/GRP receptors in membranes of SCLC H69 tumours; assay: Bombesin/GRP receptor binding on H69 tumour membranes after in vivo treatment; parameters: species or system human; details: after in vivo treatment
Source text: as §1, with “In order to determine the specificity of the binding sites for radiolabelled EGF, IGF-I, somatostatin and bombesin to lung cancer membranes, various structuraly related and unrelated peptides were tested for their ability to inhibit the binding of the tracers. Histological procedure The histological procedures were the same as described previously (Szepeshazi et al., 1991, 1992).” left out

[8] = test system: Somatostatin receptors in membranes of SCLC H69 tumours; assay: Somatostatin receptor binding on H69 tumour membranes after in vivo treatment; parameters: species or system human; details: Table IV, Experiment I (SCLC-H69); tumour membranes after in vivo treatment; control 450; done once
Source text: as §1, with “In order to determine the specificity of the binding sites for radiolabelled EGF, IGF-I, somatostatin and bombesin to lung cancer membranes, various structuraly related and unrelated peptides were tested for their ability to inhibit the binding of the tracers. Histological procedure The histological procedures were the same as described previously (Szepeshazi et al., 1991, 1992).” left out

[9] = test system: EGF receptor levels in tumour membranes (pancreatic, prostatic, mammary and colorectal cancers); details: associated with inhibition of growth of pancreatic, ref Radulovic et al., 1991b, Szepeshazi et al., 1991, 1992, Pinski et al., 1994a; cited from earlier work
Source text: (§2) Br. J. Cancer (1994). 70, 886 892 ? Macmillan Press Ltd..

EGF receptors = details: various cancer lines and cancer specimens; ref Liebow et al., 1992; cited from earlier work
Source text: as §2

[10] = Table I, Experiment I (SCLC-H69), 5 weeks s.c. peritumoral, RC-160 100 µg/day, means ? s.d., *P<0.05 vs control
[11] = Table I, Experiment I (SCLC-H69), 5 weeks, RC-160 100 µg/day
[12] = H69 SCLC xenografts, as compared with control group, RC-160 100 µg, RC-3950-II 20 µg per animal per day s.c. peritumorally, 5 weeks

Substance	Tumour weight [1, 10]	Tumour doubling time [1, 11] [days]	Growth of H69 SCLC tumours (in words) ([1]; RC-160 100 µg, 5 weeks)	Extent of necrosis (in words) (SCLC H69 tumours)	Apoptotic index (SCLC H69 tumours)	Mitotic index (SCLC H69 tumours)	EGF maximal binding capacity (Bmax) [3] [fmol mg' protein]	IGF-I maximal binding capacity (Bmax) [5] [fmol mg' protein]	Concentration of receptors for bombesin/GRP on H69 tumours (in words) [7]	Somatostatin maximal binding capacity (Bmax) [8] [fmol mg-'protein]	other results
[D-Tpi6, Leu'3, *(CH2NH)Leu'4] bombesin (6- 14) [RC-3095]	0.081 0.06* g	12.2	inhibited the growth of H69 SCLC tumours	less exten- sive	36.5	28.8	102	300	reduced to non-detectable levels	480	Tumour volume, final ([1]; Table I, Experiment I (SCLC-H69), 5 weeks s.c. peritumoral, RC-160 100 µg/day, RC-3440, RC-3095, RC-3950-II 20 µg/day per animal, control 249.7 ? 182.3, means ? s.d., ten animals per group, *P<0.05 vs control): 80.2 mm³; Growth of H157 non-SCLC tumours (in words) ([2]; 4 weeks s.c., SB-75 100 µg/day per animal, vs control): No significant reduction in final tumour volume, tumour weight and tumour growth; Tumour volume, final ([2]; Table I, Experiment II (non-SCLC H157), 4 weeks s.c. peritumoral, SB-75 100 µg/day per animal, control 1580.3 ? 455.7, means ? s.d., ten animals per group, *P<0.05 vs control): 913 mm³; Tumour doubling time ([2]; Table I, Experiment II (non-SCLC H157), 4 weeks s.c., SB-75 100 µg/day, control 3.88): 4.42 days; EGF maximal binding capacity (Bmax) ([4]; Table IV, Experiment II (non-SCLC H157), tumour membranes after in vivo treatment, control 249, done once): 207 fmol mg' protein; EGF binding capacity on H157 tumours (in words) ([4]; after in vivo treatment): no effect; IGF-I maximal binding capacity (Bmax) ([6]; Table IV, Experiment II (non-SCLC H157), tumour membranes after in vivo treatment, control 257, done once): 270 fmol mg' protein; IGF-I binding sites on H157 tumours (in words) ([6]; after in vivo treatment): no effect; EGF receptor levels in tumour membranes (in words) [9]: major decrease in EGF receptor levels; Effect on phosphorylation of EGF receptors (in words) (EGF receptors): inhibits these effects
[D-Phe6, Leu'3*(CH,N)Tac'1 bombesin (6-14) [RC-3950-II]	0.03 0.03* g	16.8	greatest inhibitory effect	less exten- sive	41.5	49.8	93	226	reduced to non-detectable levels	390	Reduction in tumour volumes [1, 12]: more than 80%; Reduction in tumour weights [1, 12]: more than 80%
